Data reported in US20230414554A1, “COMPOUNDS FOR TREATING HEPATOCELLULAR CARCINOMA” (SERVICIO ANDALUZ DE SALUD, priority 2020, published 2023).

Legend:
THLE-2 cells = experiment: Cell proliferation/viability of cell line derived from normal hepatocytes; assay type: cell-based; details: after 72 h; pladienolide-B 10^−8 M, sorafenib 5 nM
Description: Cell lines and treatments HepG2, Hep3b, and SNU-387 (HB-8065) cell lines were purchased from ATCC (Manassas, USA) and cultured as recommended. The cells were kept at 37° C. and 5% CO2, and periodically validated by means of STR analysis (GenePrint, Promega, Barcelona, Spain) and analyzed to detect mycoplasma contamination. THLE-2 cells were cultured according to the manufacturer's instructions. […] Positive controls [IGF-1 (10^−6M)] and negative controls [Paclitaxel (10^−7M)] were used.
The determination of cell proliferation, migration, apoptosis, clone and tumorsphere formation was performed as published previously.

[1] = test system: Hep3b-induced xenograft tumors; experiment: Hep3b xenograft model, tumor growth and necrosis; assay type: in vivo, nude mice; details: sorafenib 30 mg/kg in drinking water for 3 days; histopathology vs vehicle
Description: For in vitro and in vivo administrations, pladienolide-B (Santa Cruz, Heidelberg, Germany) was resuspended in DMSO (Sigma-Aldrich, Madrid, Spain). For in vitro administration, sorafenib (LC Laboratories, Woburn, USA) was dissolved in DMSO. […] For in vivo tests, sorafenib was dissolved in Cremophor EL/ethanol (50:50).
Experiments with xenograft mice were conducted in accordance with the European Animal Care Regulations under the approval of the university/regional government research ethics committees. 5×10^6 Hep3b cells (n=16 mice; n=32 tumors) in 50 μl of BME (Trevigen, Gaithersburg, MD) were subcutaneously grafted on both flanks of eight-week-old male Fox1nu/Foxn1nu nude mice (Janvier Labs, Le Genest-Saint-Isle, France). Tumor growth was monitored twice a week for 2 months by means of using a digital caliper. In the third week after grafting, when tumors were visible, the mice were treated with vehicle, pladienolide B, sorafenib, or the combination thereof (n=4 mice/treatment; n=8 tumors/treatment). Sorafenib (30 mg/kg) was administered dissolved in drinking water for 3 days; whereas the water of the remaining mice was treated with cremophor/ethanol vehicle. Pladienolide-B (10^−8M) was injected intratumorally on the second day of treatment with sorafenib. […] Tumor necrosis was evaluated after hematoxylin and eosin staining by expert pathologists.

For `CNC(=O)c1cc(Oc2ccc(NC(=O)Nc3ccc(Cl)c(C(F)(F)F)c3)cc2)ccn1` [sorafenib, reference compound], the “viability of THLE-2 cells” value (THLE-2 cells) was “significantly reduced same” and the tumor necrosis [1] was “greater necrosis than tumors treated with vehicle”.
